# In patent US6133273A, “Pyrazolopyrimidine-2,4-dione sulfonamides” (American Home Products Corporation, priority 1999, dated 2000):
# How the values were obtained:
# [1] = system: promoter region of the human calcitonin gene (luciferase reporter, C1-3 cells); details: c1-3 tt cells, 12 h, 30 µM
# Protocol: (§1) This assay was used to determine the ability of a compound to stimulate transcription of a luciferase reporter gene regulated by 3 kb of the promoter region of the human calcitonin gene.
# (§2) C1-3 cells were plated at a density of 6,500-7,500 cells per well in a 96-plate microtiter plate. Twenty-four to forty-eight hours later, compounds were added to the wells in triplicate. Compounds were tested at a concentration of 10 μg/mL in 0.5% DMSO.
# (§3) The production of light is measured on a luminometer.
# (§4) TAR Ratio: Stimulation of calcitonin promoter-dependent transcription is expressed as a ratio of luciferase activity (LUCI) in the presence of test compound compared to the LUCI activity in the untreated control: [formula]
# [2] = system: C1-3 cell line (calcitonin secretion); assay: Calcitonin Secretion/RIA Assay; assay type: cell-based, human; details: active if >2.5; for Secretion Ratio: 30 μM, ratio of calcitonin secretion vs untreated control; for fold induction at 30 µM: Homo sapiens, C13, ratio of calcitonin secretion vs untreated control
# Protocol: Cell Line: C1-3 (Parent Cell Line: TT-medullary thyroid carcinoma),
# Reagent A--(Anti-Calcitonin)
# Regent C--(Anti-Goat Precipitant)
# Regent D--(Zero Standard).
# Reagents E-I--(Calcitonin Standards)
# Reagents J-K (Calcitonin Controls: Level and Level 2)
# 1. Glass tubes were labeled to include Total Count (TC), Nonspecific Binding (NSB), Maximum Binding (Bo), Standards, Controls and Patient Sera in duplicate.
# 2. […] of Standard Zero (Reagent D) was added to tubes 3 through 6 (NSB and Bo).
# 3. […] of Standards* (Reagents E-1) was added to tubes 7-16 as follows:
# 4. […] of Patient Serum 1 was added to tubes 21 and 22, Patient Serum 2 was added to tubes 23 and 24, etc.
# 5. […] of Reagent L (NSB Buffer) was added to tubes 3 and 4.
# 6. […] of Reagent A (Anti-Calcitonin) was added to all tubes except tubes 1 & 2 (TC) and tube 3 & 4 (NSB). All tubes were vortexed, covered with parafilm or foil and incubated 44±6 hours at 2-8° C.
# 7. […] All tubes were vortexed, covered with parafilm or foil and incubated 22±3 hours at 2-8° C.
# 8. Reagent C (Anti-Goat Precipitant) was mixed gently but thoroughly by inverting the vial several times before use. 1 mL Reagent C was added to all tubes except 1 and 2 (TC). Tubes were vortexed and incubated 20 minutes at room temperature.
# 9. All tubes were centrifuged at 1300-1500×g for 15 minutes at 2-8° C.
# 10. Supernatant was decanted immediately after centrifugation taking care to leave the precipitate intact.
# 11. Tubes were counted 4 minutes or longer.
# Secretion Ratio: Stimulation of calcitonin secretion is expressed as a ratio of secretion activity in the presence of test compound compared to the secretion activity in the untreated control: [formula]
# [3] = system: PDE-IV; assay: Inhibition of Phosphodiesterase IV (PDE-IV) isolated from human U937 cells; assay type: biochemical; details: U937 cell PDE-IV, 1 μM [3H]-cAMP, 37° C., test compound 0.001 μM to 10 μM
# Protocol: This assay was used to biochemically assess the ability of a test compound to inhibit PDE-IV isolated from a U937 cell line, where PDE-IV refers to the cGMP-insensitive, cAMP-selective PDE.
# Cell Culture: U937 cells were grown in RPMI 1640 medium supplemented with 10% heat-inactivated fetal calf serum and Penicillin/Streptomycin (100 units/100 μg per mL) in a humidified 5% CO2 atmosphere at 37° C. Starter cells were maintained in continuous logarithmic growth by seeding them in 75 cm^2 vented tissue culture flasks at a concentration of 3×10^4 cells/mL and passing them every 3-4 days when the cells reached approximately 8×10^5 cells/mL. For experiments, 3-4 day starter cells were seeded in 225 cm^2 flasks at 1×10^5 cells/mL and harvested 3-4 days later at approx. 6×10^5 cells/mL.
# Isolation of PDE-IV: U937 cells were activated with 10 μM dibutyryl cAMP for a period of 4 hours (to up-regulate PDE-IV) and then harvested by centrifugation at 1200×g for 10 min in 250 mL conical centrifuge tubes. The pellet from each 200 mL flask was resuspended in 5 mL buffer A [10 mM Tris-HCl, 5 mM MgCl2, 4 mM EGTA, 5 mM 2-mercaptoethanol, 1 μM leupeptin, 1 μM pepstatin A, and 5 μM phenylmethyl sulfonyl fluoride (PMSF) (pH 7.8)], and the cells were lysed using 3 cycles of freezing (3 min in dry ice/acetone) followed by thawing (warm water). […] To determine which families of PDEs were present, fractions may be assayed for hydrolytic activity with 1 μM [^3 H]-cAMP or 1 μM [^3 H]-cGMP. Additionally, 1 μM [^3 H]-cAMP assays were conducted in the presence of 10 μM rolipram, 10 μM cGMP, or calmodulin (1 unit/0.4 mL plus 10 μM CaCl2).
# When prepared in this manner, approximately 80% of total cAMP PDE activity is eluted by Buffer B containing 0.7 M sodium acetate. This PDE activity consists of>90% PDE-IV (as evidenced by its susceptibility to inhibition by rolipram.
# PDE assay: PDE activity was measured using a modification of the radioisotope procedure previously described by Thompson et al. (Thompson, W. J., Terasaki, W. L., Epstein, P. M. and Strada, S. J. Adv, Cyclic Nucleotide Res. 1979, 10, 69). Reaction mixtures (0.4 mL) contain 40 mM Tris-HCl (pH 7.8), 4 mM 2-mercaptoethanol, 5 mM MgCl2, 0.1 μM leupeptin, 0.1 μM pepstatin A, 0.1 μM PMSF, 1 μM [3H]-cAMP or 1 μM [^3 H]-cGMP (~200,000 DPM), and enzyme to initiate the reaction. ^3 H-cAMP substrate was prepared as follows: A stock solution of ^3 H-cyclic nucleotide (1000 μCi/mL) was diluted 1:10 in 50% EtOH. 200 μl of this diluted stock solution was added to a cold (unlabeled) cyclic nucleotide solution, made at a concentration of 4 μM. 100 μl of this solution was used per assay tube to achieve a final concentration of 1 μM cyclic nucleotide per assay tube (200,000 DPM). Enzyme activity was determined at 37° C. Reactions were terminated by boiling, incubating with snake venom, and cooling as previously described (Thompson et al., 1979). The reaction mixture was applied to a (0.8×8.5 cm) column containing 0.4 g Dowex I-X8 affinity resin; reaction tubes were rinsed with 0.5 mL of methanol; and this, along with an extra 1 mL of methanol, was applied to the column to elute the ^3 H-reaction products. After all liquid has passed through the column, the column was plunged with a 12 cc syringe plunger. Each column's eluate was collected in a 20 mL scintillation vial containing 10 mL aquasol-2 and counted by scintillation spectrophotometry. [^3 H]-adenosine or [^3 H]-guanosine recovery was corrected for background DPM determined in the absence of enzyme. The amount of enzyme and duration of assay were adjusted to ensure that less than 25% of the substrate was consumed under these conditions.
# Measurements: Inhibition by a test compound was measured as a percent reduction of total PDE activity, and calculated as follows: [formula] where A is the PDE activity (mean DPM-background DPM) in the presence of test compound, and B is the total PDE-IV activity (mean DPM-background DPM) in the absence of test compound. […]
# [4] = Serum Calcium/Plasma Calcitonin Determination Assay (acute/subacute, rats); assay type: in vivo, Sprague Dawley rats; details: subacute, sc, n=8, 30 mg/kg/2x/day; for % Decrease Serum Calcium: Examples 4 and 7 marked * (p<0.05 vs. vehicle); for % Increase Plasma Calcitonin: Examples 5 and 7 marked * (p<0.05 vs. vehicle)
# Protocol: This assay was used to evaluate the ability of a test compound to decrease serum calcium and increase plasma calcitonin in rats using either an acute or sub-acute protocol. […]
# Subacute Administration Study: After 72 hours acclimatization, young male or female Sprague Dawley rats weighing 170-250 g were randomly divided in groups of 8. The rats were fasted and given deionized H2 O 18 hours prior to the start of the study. The purpose of the fasting is to reduce the variability in serum calcium and plasma calcitonin levels. Each rat was weighed.
# C-G Test Compounds 30 mg/kg/2x/day ip or sc
# ^b In vehicle and test compound groups, the treatments that the
# Measurements: Body weight, serum calcium levels and plasma calcitonin levels.
# Data Evaluations: The difference in serum calcium and plasma calcitonin between a treatment group and the vehicle group was determined using a one-way analysis of variance with Dunnett's test, or other multiple comparison methods. Compounds were designated active if .rho.<0.05 vs. vehicle value.
# [5] = system: promoter region of the human calcitonin gene (luciferase reporter, C1-3 cells); assay: Calcitonin/Luciferase Reporter Gene Expression Assay; details: Homo sapiens, C13, 12 h, read-out: TAR (transcription activation ratio)
# Protocol: as §1, §2, §3, §4
molecule,measurement,setting,value
"4,6-Dibutyl-1-(3,5-dimethyl-isoxazole-4-sulfonyl)-1,4-dihydro-pyrazolo[4,3- d]pyrimidine-5,7-dione [Example 8]",TAR (transcription activation ratio),[1],2.14
same,Secretion Ratio,[2],3.23
same,% Inhibition of PDE IV (normalized to rolipram),[3],26%
"4,6-Dibutyl-1-ethanesulfonyl-1,4-dihydro-pyrazolo[4,3-d]pyrimidine-5,7-dion [Example 10]",TAR (transcription activation ratio),[1],1.43
same,Secretion Ratio,[2],2.90
same,% Inhibition of PDE IV (normalized to rolipram),[3],45%
"CCCCn1c(=O)c2nn(S(=O)(=O)c3ccc4ccccc4c3)cc2n(CCCC)c1=O [Example 4, 4,6-Dibutyl-2-(2-naphthalenesulfonyl)-2,4-dihydro-pyrazolo[4,3-d]pyrimidine-5,7-dione]",% Decrease Serum Calcium,[4],5%
same,% Increase Plasma Calcitonin,[4],8%
same,fold induction at 30 µM,[2],4.91
same,fold induction at 30 µM,[5],1.75
same,% Inhibition of PDE IV (normalized to rolipram),[3],33%
"CCCCn1c(=O)c2nn(S(=O)(=O)c3ccc(C(C)(C)C)cc3)cc2n(CCCC)c1=O [Example 5, 4,6-Dibutyl-2-(4-tert-butyl-benzenesulfonyl)-2,4-dihydro-pyrazolo[4,3-d]pyrimidine-5,7-dione]",% Decrease Serum Calcium,[4],1%
same,% Increase Plasma Calcitonin,[4],101%
same,fold induction at 30 µM,[2],4.5
same,fold induction at 30 µM,[5],2.27
same,% Inhibition of PDE IV (normalized to rolipram),[3],63%
"CCCCn1c(=O)c2nn(S(=O)(=O)c3cc(Cl)c(Cl)s3)cc2n(CCCC)c1=O [Example 6, 4,6-Dibutyl-2-(4,5-dichloro-thiophene-2-sulfonyl)-2,4-dihydro-pyrazolo[4,3-d]pyrimidine-5,7-dione]",% Decrease Serum Calcium,[4],0%
same,% Increase Plasma Calcitonin,[4],12%
same,fold induction at 30 µM,[2],3.4
same,fold induction at 30 µM,[5],1.69
same,% Inhibition of PDE IV (normalized to rolipram),[3],100%
CCCCn1c(=O)c2cn(S(=O)(=O)c3c(C)nn(C)c3Cl)nc2n(CCCC)c1=O [Example 7],% Decrease Serum Calcium,[4],4%
same,% Increase Plasma Calcitonin,[4],80%
same,fold induction at 30 µM,[2],2.92
same,fold induction at 30 µM,[5],2.13
